Measurements reported in ChEMBL document CHEMBL3352227, “Synthesis, antimycobacterial and antibacterial evaluation of l-[(1R, 2S)-2-fluorocyclopropyl]fluoroquinolone derivatives containing an oxime functional moiety” (Eur J Med Chem, 2014).
Converted amounts (≈) assume the structure as drawn.

Legend:
Type in all cases: functional
Escherichia coli [1] = assay: Antibacterial activity against extended-spectrum beta-lactamase producing Escherichia coli 12-15 after 18 to 24 hrs by standard twofold serial dilution method
[2] = test system: Mycobacterium tuberculosis; assay: Antimycobacterial activity against Mycobacterium tuberculosis H37Rv ATCC 27294 by MABA method
Escherichia coli [3] = assay: Antibacterial activity against extended-spectrum beta-lactamase producing Escherichia coli 12-2 after 18 to 24 hrs by standard twofold serial dilution method
Staphylococcus aureus [4] = assay: Antibacterial activity against methicillin-sensitive Staphylococcus aureus 12-5 after 18 to 24 hrs by standard twofold serial dilution method
Klebsiella pneumoniae [5] = assay: Antibacterial activity against Klebsiella pneumoniae 12-1 after 18 to 24 hrs by standard twofold serial dilution method
Escherichia coli [6] = assay: Antibacterial activity against Escherichia coli ATCC 25922 after 18 to 24 hrs by standard twofold serial dilution method
Klebsiella pneumoniae [7] = assay: Antibacterial activity against extended-spectrum beta-lactamase producin Klebsiella pneumoniae 12-3 after 18 to 24 hrs by standard twofold serial dilution method
Klebsiella pneumoniae [8] = assay: Antibacterial activity against Klebsiella pneumoniae 12-4 after 18 to 24 hrs by standard twofold serial dilution method
Streptococcus pneumoniae [9] = assay: Antibacterial activity against Streptococcus pneumoniae 12-18 after 18 to 24 hrs by standard twofold serial dilution method
Pseudomonas aeruginosa [10] = assay: Antibacterial activity against Pseudomonas aeruginosa 12-14 after 18 to 24 hrs by standard twofold serial dilution method
Staphylococcus aureus [11] = assay: Antibacterial activity against Staphylococcus aureus ATCC 25923 after 18 to 24 hrs by standard twofold serial dilution method
Streptococcus pneumoniae [12] = assay: Antibacterial activity against Streptococcus pneumoniae ATCC 49619 after 18 to 24 hrs by standard twofold serial dilution method
[13] = test system: Staphylococcus epidermidis; assay: Antibacterial activity against methicillin-sensitive Staphylococcus epidermidis 12-1 after 18 to 24 hrs by standard twofold serial dilution method
[14] = test system: Staphylococcus epidermidis; assay: Antibacterial activity against methicillin-sensitive Staphylococcus epidermidis 12-8 after 18 to 24 hrs by standard twofold serial dilution method
Staphylococcus aureus [15] = assay: Antibacterial activity against methicillin-resistant Staphylococcus aureus 12-2 after 18 to 24 hrs by standard twofold serial dilution method
Escherichia coli [16] = assay: Antibacterial activity against extended-spectrum beta-lactamase producing Escherichia coli 12-14 after 18 to 24 hrs by standard twofold serial dilution method
Staphylococcus aureus [17] = assay: Antibacterial activity against methicillin-sensitive Staphylococcus aureus 12-4 after 18 to 24 hrs by standard twofold serial dilution method
Pseudomonas aeruginosa [18] = assay: Antibacterial activity against Pseudomonas aeruginosa 12-12 after 18 to 24 hrs by standard twofold serial dilution method
Escherichia coli [19] = assay: Antibacterial activity against Escherichia coli 12-1 after 18 to 24 hrs by standard twofold serial dilution method
Staphylococcus aureus [20] = assay: Antibacterial activity against methicillin-sensitive Staphylococcus aureus 12-1 after 18 to 24 hrs by standard twofold serial dilution method
Klebsiella pneumoniae [21] = assay: Antibacterial activity against extended-spectrum beta-lactamase producin Klebsiella pneumoniae 12-7 after 18 to 24 hrs by standard twofold serial dilution method
Klebsiella pneumoniae [22] = assay: Antibacterial activity against extended-spectrum beta-lactamase producin Klebsiella pneumoniae 12-4 after 18 to 24 hrs by standard twofold serial dilution method
[23] = test system: Staphylococcus epidermidis; assay: Antibacterial activity against methicillin-sensitive Staphylococcus epidermidis 12-6 after 18 to 24 hrs by standard twofold serial dilution method
Staphylococcus aureus [24] = assay: Antibacterial activity against methicillin-resistant Staphylococcus aureus 12-5 after 18 to 24 hrs by standard twofold serial dilution method
Staphylococcus aureus [25] = assay: Antibacterial activity against methicillin-resistant Staphylococcus aureus 12-4 after 18 to 24 hrs by standard twofold serial dilution method
Klebsiella pneumoniae [26] = assay: Antibacterial activity against Klebsiella pneumoniae 12-2 after 18 to 24 hrs by standard twofold serial dilution method
[27] = test system: Staphylococcus epidermidis; assay: Antibacterial activity against methicillin-sensitive Staphylococcus epidermidis 12-3 after 18 to 24 hrs by standard twofold serial dilution method
Klebsiella pneumoniae [28] = assay: Antibacterial activity against extended-spectrum beta-lactamase producin Klebsiella pneumoniae 12-14 after 18 to 24 hrs by standard twofold serial dilution method
[29] = test system: Staphylococcus epidermidis; assay: Antibacterial activity against methicillin-resistant Staphylococcus epidermidis 12-6 after 18 to 24 hrs by standard twofold serial dilution method
Staphylococcus aureus [30] = assay: Antibacterial activity against methicillin-sensitive Staphylococcus aureus 12-2 after 18 to 24 hrs by standard twofold serial dilution method
Escherichia coli [31] = assay: Antibacterial activity against extended-spectrum beta-lactamase producing Escherichia coli 12-3 after 18 to 24 hrs by standard twofold serial dilution method
[32] = test system: Staphylococcus epidermidis; assay: Antibacterial activity against methicillin-resistant Staphylococcus epidermidis 12-1 after 18 to 24 hrs by standard twofold serial dilution method

| Compound | MIC (Escherichia coli [1]) [µg/mL] | MIC [2] [µg/mL] | MIC (Escherichia coli [3]) [µg/mL] | MIC (Staphylococcus aureus [4]) [µg/mL] | MIC (Klebsiella pneumoniae [5]) [µg/mL] | MIC (Escherichia coli [6]) [µg/mL] | MIC (Klebsiella pneumoniae [7]) [µg/mL] | MIC (Klebsiella pneumoniae [8]) [µg/mL] | MIC (Streptococcus pneumoniae [9]) [µg/mL] | MIC (Pseudomonas aeruginosa [10]) [µg/mL] | MIC (Staphylococcus aureus [11]) [µg/mL] | MIC (Streptococcus pneumoniae [12]) [µg/mL] | MIC [13] [µg/mL] | MIC [14] [µg/mL] | MIC (Staphylococcus aureus [15]) [µg/mL] | MIC (Escherichia coli [16]) [µg/mL] | MIC (Staphylococcus aureus [17]) [µg/mL] | MIC (Pseudomonas aeruginosa [18]) [µg/mL] | MIC (Escherichia coli [19]) [µg/mL] | MIC (Staphylococcus aureus [20]) [µg/mL] | other results |
| --- | --- | --- | --- | --- | --- | --- | --- | --- | --- | --- | --- | --- | --- | --- | --- | --- | --- | --- | --- | --- | --- |
| CCO/N=C1/CN(c2nc3c(cc2F)c(=O)c(C(=O)O)cn3[C@@H]2C[C@@H]2F)[C@H]1CN | > 128 | 1 (≈ 2.45 µM) | > 128 | 0.5 (≈ 1.23 µM) | 0.5 (≈ 1.23 µM) | 0.125 (≈ 0.307 µM) | 128 (≈ 314 µM) | 0.25 (≈ 0.614 µM) | 4 (≈ 9.82 µM) | 32 (≈ 78.6 µM) | 0.5 (≈ 1.23 µM) | 0.5 (≈ 1.23 µM) | 0.5 (≈ 1.23 µM) | 16 (≈ 39.3 µM) | 64 (≈ 157 µM) | 128 (≈ 314 µM) | 0.25 (≈ 0.614 µM) | 1 (≈ 2.45 µM) | 2 (≈ 4.91 µM) | 0.5 (≈ 1.23 µM) | MIC (Klebsiella pneumoniae [21]): 4 µg/mL (≈ 9.82 µM); MIC (Klebsiella pneumoniae [22]): 8 µg/mL (≈ 19.6 µM); MIC [23]: 0.25 µg/mL (≈ 0.614 µM); MIC (Staphylococcus aureus [24]): 64 µg/mL (≈ 157 µM); MIC (Staphylococcus aureus [25]): 64 µg/mL (≈ 157 µM); MIC (Klebsiella pneumoniae [26]): 0.5 µg/mL (≈ 1.23 µM); MIC [27]: 1 µg/mL (≈ 2.45 µM); MIC (Klebsiella pneumoniae [28]): 64 µg/mL (≈ 157 µM); MIC [29]: 16 µg/mL (≈ 39.3 µM); MIC (Staphylococcus aureus [30]): 0.25 µg/mL (≈ 0.614 µM); MIC (Escherichia coli [31]): 16 µg/mL (≈ 39.3 µM); MIC [32]: 16 µg/mL (≈ 39.3 µM) |
| CCO/N=C1/CN(c2cc3c(cc2F)c(=O)c(C(=O)O)cn3[C@@H]2C[C@@H]2F)[C@@H]1CN | > 128 | 2 (≈ 4.92 µM) | 128 (≈ 315 µM) | 0.03 (≈ 0.0738 µM) | 0.25 (≈ 0.615 µM) | 0.06 (≈ 0.148 µM) | 64 (≈ 157 µM) | 0.25 (≈ 0.615 µM) | 1 (≈ 2.46 µM) | 32 (≈ 78.7 µM) | < 0.008 | 0.25 (≈ 0.615 µM) | 0.06 (≈ 0.148 µM) | 4 (≈ 9.84 µM) | 32 (≈ 78.7 µM) | 64 (≈ 157 µM) | 0.03 (≈ 0.0738 µM) | 1 (≈ 2.46 µM) | 0.25 (≈ 0.615 µM) | 0.06 (≈ 0.148 µM) | MIC (Klebsiella pneumoniae [21]): 1 µg/mL (≈ 2.46 µM); MIC (Klebsiella pneumoniae [22]): 16 µg/mL (≈ 39.4 µM); MIC [23]: 0.06 µg/mL (≈ 0.148 µM); MIC (Staphylococcus aureus [24]): 32 µg/mL (≈ 78.7 µM); MIC (Staphylococcus aureus [25]): 32 µg/mL (≈ 78.7 µM); MIC (Klebsiella pneumoniae [26]): 0.25 µg/mL (≈ 0.615 µM); MIC [27]: 0.125 µg/mL (≈ 0.308 µM); MIC (Klebsiella pneumoniae [28]): 64 µg/mL (≈ 157 µM); MIC [29]: 64 µg/mL (≈ 157 µM); MIC (Staphylococcus aureus [30]): 0.06 µg/mL (≈ 0.148 µM); MIC (Escherichia coli [31]): 16 µg/mL (≈ 39.4 µM); MIC [32]: 8 µg/mL (≈ 19.7 µM) |
